Assay results taken from patent US7691858B2, “Kinase inhibitors and methods of use thereof” (TargeGen, Inc., priority 2006, dated 2010).
“Also recorded” adds a separate entry of the source.

Columns and labels:
[1] = test system: dextran-induced inflammatory edema; assay: Rat hindpaw inflammation model, dextran; type: in vivo, Sprague Dawley rats
Description: FIG. 4. Inhibition of edema and inflammation. (a, b) Rats were injected i.v. with Evans blue dye and then intradermally with saline, VEGF or histamine. […] (c-f) Rat hindpaws were injected with either PAF (c & d) or dextran (e & f), and three hours later processed as H&E-stained paraffin sections. […] Images were taken of paws representing the mean group value for volume as presented in Results (original magnification 200×).
The Miles assay models a primarily endothelial-based response that develops rapidly (within minutes). As a comparator, we next employed a rodent hindpaw model where more complex inflammatory reactions develop over several hours. Agonists included PAF, a GPCR ligand that activates both EC and leukocytes, and dextran, a phagocytic stimulus for mast cell and leukocyte activation. […] Paw volume (a more quantitative measure of edema and inflammation) was reduced by 62% and 78% in response to PAF or dextran, respectively (n=8, P<0.001). Finally, to correlate these in vivo responses with the molecular target of interest, we monitored PI3K pathway signaling through Western blot analyses of Akt phosphorylation (a PI3K-mediated event).
In order to determine the influence of compounds on the development of inflammation, Sprague Dawley rats were first injected intravenously with either vehicle or test compound at 5 mg/kg, and then 30 min later either PBS (as a control), dextran or platelet activating factor (PAF) was injected into the plantar surface of the hindlimbs, dextran and PAF being known to induce localized inflammatory responses marked by edema. Three hours later, paw dimensions were measured using a caliper and paw volumes calculated; data are shown as the increase in paw volume (mm^3) as compared to controls (paws injected with PBS).

MAPK1 = target: T1, MAPK1 (Homo sapiens, UniProt P27361); assay: Kinase panel screen; type: biochemical; conditions: Compound I and ATP 10 μM
T1 construct: purchased Upstate USA or Invitrogen (commercial screening service)
T1 sequence (P27361 2-379 limits assumed): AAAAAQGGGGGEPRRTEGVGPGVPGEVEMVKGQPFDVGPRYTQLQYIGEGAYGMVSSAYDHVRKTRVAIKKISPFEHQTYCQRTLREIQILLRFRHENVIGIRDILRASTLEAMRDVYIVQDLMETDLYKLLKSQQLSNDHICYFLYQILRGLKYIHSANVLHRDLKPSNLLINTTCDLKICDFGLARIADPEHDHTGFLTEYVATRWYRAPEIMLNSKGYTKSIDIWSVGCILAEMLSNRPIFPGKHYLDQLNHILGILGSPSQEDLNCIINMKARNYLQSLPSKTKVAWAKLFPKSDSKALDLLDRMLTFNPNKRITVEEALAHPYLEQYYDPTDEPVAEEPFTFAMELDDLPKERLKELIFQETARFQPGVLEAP

Syk = target: T2, Syk (Homo sapiens, UniProt P43405); assay: Kinase panel screen; type: biochemical; conditions: Compound I and ATP 10 μM
T2 construct: purchased Upstate USA or Invitrogen (contract screening service)

PKCpiI = target: T3, PKCpiI (Homo sapiens, UniProt P05771); assay: Kinase panel screen; type: biochemical; conditions: Compound I and ATP 10 μM
T3 construct: purchased Upstate USA or Invitrogen (commercial screening service)
T3 sequence (P05771 1-673 isoform P05771-2): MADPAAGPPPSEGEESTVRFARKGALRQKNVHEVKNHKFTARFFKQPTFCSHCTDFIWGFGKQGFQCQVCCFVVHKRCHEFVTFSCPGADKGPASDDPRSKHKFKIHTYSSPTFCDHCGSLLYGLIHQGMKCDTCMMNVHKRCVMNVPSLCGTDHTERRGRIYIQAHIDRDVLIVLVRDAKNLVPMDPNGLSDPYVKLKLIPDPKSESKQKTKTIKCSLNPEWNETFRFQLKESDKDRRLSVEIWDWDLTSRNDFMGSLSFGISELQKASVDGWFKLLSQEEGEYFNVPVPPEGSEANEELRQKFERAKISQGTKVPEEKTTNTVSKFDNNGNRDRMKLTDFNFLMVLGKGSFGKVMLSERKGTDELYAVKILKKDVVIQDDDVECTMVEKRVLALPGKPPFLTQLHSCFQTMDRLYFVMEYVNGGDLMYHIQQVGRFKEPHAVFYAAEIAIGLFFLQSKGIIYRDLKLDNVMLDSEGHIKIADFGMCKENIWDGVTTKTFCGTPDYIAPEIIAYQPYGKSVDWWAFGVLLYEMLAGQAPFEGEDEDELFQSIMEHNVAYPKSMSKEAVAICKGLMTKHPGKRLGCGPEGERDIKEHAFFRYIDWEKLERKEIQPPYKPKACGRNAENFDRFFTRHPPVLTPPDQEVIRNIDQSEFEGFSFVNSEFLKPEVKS

ZIPK = ZIPK (Homo sapiens, UniProt O43293); assay: Kinase panel screen; type: biochemical; conditions: Compound I and ATP 10 μM
Chain of ZIPK (O43293 whole entry): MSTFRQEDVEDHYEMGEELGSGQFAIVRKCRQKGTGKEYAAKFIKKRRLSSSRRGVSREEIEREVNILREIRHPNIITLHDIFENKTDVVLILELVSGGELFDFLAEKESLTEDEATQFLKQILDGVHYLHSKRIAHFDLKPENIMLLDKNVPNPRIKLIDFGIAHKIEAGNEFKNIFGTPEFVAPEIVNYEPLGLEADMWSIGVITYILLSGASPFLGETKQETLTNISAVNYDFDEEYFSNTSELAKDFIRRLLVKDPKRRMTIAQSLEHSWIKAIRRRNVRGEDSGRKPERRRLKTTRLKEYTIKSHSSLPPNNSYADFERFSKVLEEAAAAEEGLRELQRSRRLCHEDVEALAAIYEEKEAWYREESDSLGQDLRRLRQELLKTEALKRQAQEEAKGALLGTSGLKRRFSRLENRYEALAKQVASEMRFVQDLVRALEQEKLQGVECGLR

MST2 = target: T4, MST2 (Homo sapiens, UniProt Q13188); assay: Kinase panel screen; type: biochemical; conditions: Compound I and ATP 10 μM
T4 construct: purchased Upstate USA or Invitrogen (commercial screening service)
T4 sequence (Q13188 whole entry): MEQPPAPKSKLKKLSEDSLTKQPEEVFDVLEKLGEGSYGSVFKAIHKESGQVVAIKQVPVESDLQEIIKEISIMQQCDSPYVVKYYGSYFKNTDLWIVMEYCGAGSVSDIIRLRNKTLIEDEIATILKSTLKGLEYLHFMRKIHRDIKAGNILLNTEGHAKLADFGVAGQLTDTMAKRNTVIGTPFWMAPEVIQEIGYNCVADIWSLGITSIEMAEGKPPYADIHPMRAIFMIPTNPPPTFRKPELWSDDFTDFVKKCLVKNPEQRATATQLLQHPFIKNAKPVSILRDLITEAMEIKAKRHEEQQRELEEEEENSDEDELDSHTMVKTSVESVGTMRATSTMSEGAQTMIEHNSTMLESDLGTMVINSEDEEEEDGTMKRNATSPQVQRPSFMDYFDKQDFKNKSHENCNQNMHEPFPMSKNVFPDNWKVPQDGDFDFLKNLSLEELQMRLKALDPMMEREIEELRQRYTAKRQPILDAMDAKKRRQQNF

PAK4 = target: T5, PAK4 (Homo sapiens, UniProt O96013); assay: Kinase panel screen; type: biochemical; conditions: Compound I and ATP 10 μM
T5 construct: purchased Upstate USA or Invitrogen (commercial screening service)
T5 sequence (O96013 whole entry): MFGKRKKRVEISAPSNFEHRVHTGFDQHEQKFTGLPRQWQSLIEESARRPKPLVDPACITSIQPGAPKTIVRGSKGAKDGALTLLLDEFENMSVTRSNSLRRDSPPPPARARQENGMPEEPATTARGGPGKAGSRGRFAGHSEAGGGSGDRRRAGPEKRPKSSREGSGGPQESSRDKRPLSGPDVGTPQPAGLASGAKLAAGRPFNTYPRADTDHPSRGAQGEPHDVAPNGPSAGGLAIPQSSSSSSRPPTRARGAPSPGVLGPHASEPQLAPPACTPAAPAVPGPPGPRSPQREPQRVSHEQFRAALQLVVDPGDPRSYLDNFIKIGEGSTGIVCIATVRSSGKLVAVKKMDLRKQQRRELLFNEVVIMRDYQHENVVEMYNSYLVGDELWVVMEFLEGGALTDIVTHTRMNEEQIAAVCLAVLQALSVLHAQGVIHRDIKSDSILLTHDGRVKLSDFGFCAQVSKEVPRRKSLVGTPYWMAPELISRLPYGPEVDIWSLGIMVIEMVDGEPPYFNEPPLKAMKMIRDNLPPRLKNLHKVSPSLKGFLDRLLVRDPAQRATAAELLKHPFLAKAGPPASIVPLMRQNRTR

## Nc1nc(N)c2nc(-c3cccc(O)c3)c(-c3cccc(O)c3)nc2n1 [Compound I, 6,7-bis-(3-hydroxyphenyl)-pteridine-2,4-diamine]
[1]; Dextran, 5 mg/kg iv 30 min before, 3 hours, mean±SEM N=6, vehicle 148 ± 6
  Increase in Paw Volume vs. Controls: 32 ± 5 mm^3
[1]; dextran, 5 mg/kg pretreatment, three hours
  edema and leukocyte infiltration (histology): strongly antagonized; also recorded: blocked
[1]; dextran, n=8
  reduction of paw volume: 78%
MAPK1
  Percent Control, MAPK1: 97%
Syk
  Percent Control, Syk: 76%
PKCpiI
  Percent Control, PKCpiI: 80%
ZIPK
  Percent Control, ZIPK: 112%
MST2
  Percent Control, MST2: 91%
PAK4
  Percent Control, PAK4: 78%
